Among the test systems are A549 NSCLC; COLO 205 colon; RPMI-8226 leukemia; RXF 393 renal; HOP-62 NSCLC; HCT-15 colon; MOLT-4 leukemia; ACHN renal; SK-MEL-28 melanoma; SW-620 colon.
What all share (assay): growth of human tumour cells (NCI), 48 h

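Step 1: Grow cells in 96-well plates. Step 2: Expose to compound for 48 hours at 5 concentrations. Step 3: Interpolate endpoints linearly; if unreached, use highest concentration. GI50 marks 50% less growth. TGI denotes the concentration required for complete inhibition of growth.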 A value given as a limit tells only on which side of the number the result lay.

As for `Cc1nc(Sc2nc3ccc([N+](=O)[O-])cc3s2)sc1C`, the GI50 is 10.4 µM in the test with A549 NSCLC; 1930 nM in the test with COLO 205 colon; 1800 nM in the test with RPMI-8226 leukemia; 1220 nM in the test with RXF 393 renal; 3.81 µM in the test with HOP-62 NSCLC; 731 nM with HCT-15 colon. The GI50 in the test on MOLT-4 leukemia was 288 nM; in the test on ACHN renal it was 1.61 µM; in the test with SK-MEL-28 melanoma it was 1770 nM; with SW-620 colon it was 482 nM. Also, the TGI was 22.7 µM in the test with A549 NSCLC; 6.07 µM with COLO 205 colon; 6.52 µM in the test with RPMI-8226 leukemia; 3.39 µM in the test with RXF 393 renal; 14.2 µM with HOP-62 NSCLC; 3.51 µM in the test with HCT-15 colon. The TGI was determined as 3.45 µM in the test on MOLT-4 leukemia, 3.81 µM with ACHN renal, 4.76 µM in the test on SK-MEL-28 melanoma and 3.53 µM in the test with SW-620 colon.

For `OC(COc1ccccc1)CN1CCCCC1` (stereo not drawn), the TGI with A549 NSCLC, in the test with COLO 205 colon, in the test on RPMI-8226 leukemia, in the test with RXF 393 renal, with HOP-62 NSCLC and in the test on HCT-15 colon was > 100 µM in each case. In addition, the TGI in the test on MOLT-4 leukemia, in the test with ACHN renal, in the test on SK-MEL-28 melanoma and with SW-620 colon was > 100 µM each time.

In the case of `O=C1C=C(Nc2ccc(S(=O)(=O)Nc3ncccn3)cc2)c2ccccc2C1=O`, the TGI in the test on A549 NSCLC amounted to 57.9 µM; in the test on COLO 205 colon it was 39.4 µM; in the test with RPMI-8226 leukemia, 97.2 µM; in the test on RXF 393 renal, 48 µM; in the test with HOP-62 NSCLC, 54.6 µM; in the test on HCT-15 colon, 47 µM. Also, the TGI was > 100 µM with MOLT-4 leukemia, 70.4 µM with ACHN renal, 60.6 µM with SK-MEL-28 melanoma and 35.1 µM in the test with SW-620 colon.

In the case of `COc1cc(CN(c2ccc(C)cc2)C2OC(=O)c3ccccc32)cc(OC)c1OC` (stereo not drawn), the GI50 with A549 NSCLC is 0.584 µM; in the test with COLO 205 colon, 351 nM; in the test on RPMI-8226 leukemia, 455 nM; in the test on RXF 393 renal, 141 nM; in the test on HOP-62 NSCLC, 0.627 µM; in the test with HCT-15 colon, 568 nM. Also, the GI50 in the test on MOLT-4 leukemia is 908 nM; with ACHN renal, 3.21 µM; with SK-MEL-28 melanoma it was 855 nM. Also, the TGI in the test on A549 NSCLC was > 100 µM; with COLO 205 colon, 1.3 µM; in the test with RPMI-8226 leukemia it was > 100 µM; in the test with RXF 393 renal, 0.52 µM; in the test with HOP-62 NSCLC, > 67.4 µM; in the test on HCT-15 colon, > 100 µM. Further, the TGI with MOLT-4 leukemia, with ACHN renal and in the test on SK-MEL-28 melanoma was > 100 µM in each case.

In the case of `CCOC(=O)C1=C(C(=O)OCC)C2(c3ccccc3)N(O1)c1ccccc1C2(C)C` (stereo not drawn), the TGI was > 100 µM in the test on A549 NSCLC; > 100 µM in the test on COLO 205 colon; 57.3 µM in the test on RPMI-8226 leukemia; > 100 µM with RXF 393 renal; > 100 µM in the test on HOP-62 NSCLC; > 100 µM with MOLT-4 leukemia. The TGI in the test on SK-MEL-28 melanoma and in the test with SW-620 colon was > 100 µM throughout.

Regarding `COc1cc(-c2nccc3cc4c(cc23)OCO4)cc(OC)c1OC`, the GI50 with A549 NSCLC was 7.37 µM; in the test with COLO 205 colon it was > 100000 nM; with RPMI-8226 leukemia it was 4980 nM; in the test with RXF 393 renal, 3400 nM; in the test on HOP-62 NSCLC, 7.55 µM; in the test on HCT-15 colon, 3570 nM. For the same compound, the GI50 is 9.92 µM with ACHN renal, 16600 nM in the test with SK-MEL-28 melanoma and 2770 nM with SW-620 colon. In addition, the TGI was > 100 µM with A549 NSCLC; > 100 µM in the test with COLO 205 colon; > 100 µM in the test with RPMI-8226 leukemia; 18.3 µM in the test on RXF 393 renal; > 100 µM with HOP-62 NSCLC; > 100 µM with HCT-15 colon. Moreover, the TGI in the test on ACHN renal, in the test on SK-MEL-28 melanoma and with SW-620 colon was > 100 µM throughout.

In the case of `Cc1ccccc1N=Nc1c(-c2ccccc2)nn(C(=O)CC(=O)Nc2cccc(Cl)c2)c1-c1ccccc1`, the TGI in the test with COLO 205 colon is 20.8 µM; with RPMI-8226 leukemia it was 21.2 µM; in the test on RXF 393 renal it was 28.4 µM; in the test with HOP-62 NSCLC, > 31.6 µM; in the test on HCT-15 colon, > 31.6 µM; in the test on MOLT-4 leukemia it was 22.7 µM. Moreover, the TGI in the test on ACHN renal was > 31.6 µM; in the test with SK-MEL-28 melanoma, > 31.6 µM; in the test on SW-620 colon it was > 39.2 µM.

With `C1CC2=C(C1)C1=S(S2)SC2=C1CCC2`, the TGI in the test with A549 NSCLC, with COLO 205 colon, with RPMI-8226 leukemia, with RXF 393 renal, with HCT-15 colon and in the test on MOLT-4 leukemia was > 100 µM throughout. Also, the TGI in the test on ACHN renal, with SK-MEL-28 melanoma and in the test with SW-620 colon was > 100 µM in each case.

With `O=C(O)Cn1ccc2ccccc21`, the GI50 was > 100 µM with A549 NSCLC; > 100000 nM in the test with COLO 205 colon; > 100000 nM in the test with RPMI-8226 leukemia; > 100000 nM in the test with RXF 393 renal; > 100 µM with HOP-62 NSCLC; > 100000 nM in the test on HCT-15 colon. The values for the GI50 with ACHN renal, in the test with SK-MEL-28 melanoma and with SW-620 colon were > 100 µM, > 100000 nM and > 100000 nM, respectively. Moreover, the TGI in the test on A549 NSCLC, in the test on COLO 205 colon, in the test with RPMI-8226 leukemia, in the test with RXF 393 renal, with HOP-62 NSCLC and with HCT-15 colon was > 100 µM each time. Moreover, the TGI with ACHN renal, in the test with SK-MEL-28 melanoma and in the test with SW-620 colon was > 100 µM in each case.

As to `COC(=O)CC(=O)NCC1=CCC(=O)CC1`, the TGI in the test with A549 NSCLC, in the test with COLO 205 colon, in the test on RPMI-8226 leukemia, in the test on RXF 393 renal, in the test on HOP-62 NSCLC and in the test on HCT-15 colon was > 100 µM in each case. Besides, the TGI in the test on MOLT-4 leukemia, in the test on SK-MEL-28 melanoma and with SW-620 colon was > 100 µM throughout.

With `NC(=S)N/N=C1/CN(c2ccc(Cl)c(Cl)c2)CC(=O)C1c1nc2ccccc2s1` (stereo not drawn), the TGI in the test with A549 NSCLC, with COLO 205 colon, in the test on RPMI-8226 leukemia, with RXF 393 renal, in the test with HOP-62 NSCLC and in the test on HCT-15 colon was > 100 µM in each case. Further, the TGI in the test with ACHN renal, in the test with SK-MEL-28 melanoma and with SW-620 colon was > 100 µM throughout.
